Test results from patent publication US8283323B2, “Withanolide compounds as inhibitors of fibrosis and identification of molecular targets for anti-fibrotic drug development” (University of Kentucky Research Foundation, priority 2006, dated 2012).

How the values were obtained:
[1] = tested on: cornea injured by 0.1 N sodium hydroxide (corneal opacity, neovascularization); experiment: alkali burn corneal injury model, digital images of corneas; format: in vivo, C57BL6 mice; conditions: 2.5 mg/kg/d i.p. daily for 6 d after alkali burn, versus vehicle (DMSO)
Method: (§1) The corneas of C57BL6 mice under anesthesia were injured by application of 0.1 N sodium hydroxide and subsequently the epithelial cell layer from the cornea and limbus was removed by scraping. Withaferin A (WA) (2.5 mg/kg/d; 4 mice) or vehicle (DMSO; 4 mice) was provided daily thereafter by i.p. injection for 6 d. Digital images of the corneas were obtained to assess the extent of tissue pathology. […] These compelling results invoke the query whether WA targets the UPP in vivo. Mice (4 per group) were injured and treated for the first 4 days with a different dose of WA or vehicle daily by i.p. injection. On day 7, mice were sacrificed and corneal buttons were isolated from injured healing corneas; equal amounts of protein from each group were analyzed by western blotting. Uninjured fellow eyes from vehicle-treated mice served as controls.

[2] = tested on: native I-kappa-B-alpha; experiment: western blotting of corneal buttons from injured healing corneas: I-kappa-B-alpha; format: in vivo, mice; conditions: different doses i.p. daily for first 4 days, corneas taken day 7, western blot
Method: as §1

[3] = tested on: HO-1; experiment: western blotting of corneal buttons from injured healing corneas: HO-1; format: in vivo, mice; conditions: i.p. daily for first 4 days, corneas taken day 7, western blot
Method: as §1

[4] = tested on: ubiquitinated transketolase (70 kDa ubiquitinated protein); experiment: immunoblotting / Coomassie blue staining of corneal protein, angioinflammation corneal model: ubiquitinated transketolase; format: in vivo, mice
Method: (§2) To investigate the levels and timing of expression of TKT we performed time-course experiments using the angioinflammation corneal model of tissue repair. Groups of mice ([…]) were injured and treated every day with vehicle (Veh), 2.5 mg/kg/d WA or 2.0 mg/kg/d epoxomicin (20S proteasome inhibitor) and sacrificed on day 4 and 6 post-inflammation. In a similar experiment, mice were treated every day with vehicle or 2.5 mg/kg/d WA and sacrificed on days 3 and 5 post-injury. Equal amounts of protein from pooled samples of each group were subjected to immunoblotting or Coomassie blue staining after fractionation on 4-20% gradient polyacrylamide gels (BioRad).
(§3) The western blots of the corneal samples were re-probed with an anti-mouse TKT antibody. […] Because of the strong Ub-immunoreactivity of TKT in injured corneas, we speculate that this protein's N-terminal antigenic site is being masked by ubiquitination in the injury-related samples (the TKT antibody reacts with the N-terminal 20-amino acid portion of native TKT).

[5] = tested on: transketolase (TKT); experiment: western blot with anti-mouse TKT antibody and immunohistochemical analysis of mouse eyes; format: in vivo, mice; conditions: injured corneas; for TKT detected by anti-mouse TKT antibody on western blot (longer film exposure): WA 2.5 mg/kg/d or epoxomicin 2.0 mg/kg/d, not detected in vehicle
Method: as §2, §3
To investigate the localization of TKT, immunohistochemical analysis of mouse eyes was conducted. TKT expression is localized to the epithelium of uninjured mouse eyes, whereas TKT expression in corneas of 4 d vehicle-treated mice is almost undetectable.

[6] = tested on: ubiquitin proteasome pathway (UPP); experiment: UPP functions in the alkali burn injury model of corneal angiofibrotic disease; format: in vivo
Source text: The abundant corneal protein tissue transketolase (TKT) is believed to play an important role in corneal homeostasis. TKT is also a target of the UPP and its reduced expression is believed to contribute to corneal fibrosis. In the present invention, targeting the UPP in injured tissue can redirect the fibrotic repair process to acquire regenerative healing. Withanolides and related compounds, such as withaferin A, withanolide D and ixocarpalactone, are small molecule inhibitors that have potent UPP-targeting activity. […] There is also a reduction in the levels of ubiquitinated transketolase (TKT), an abundant corneal protein implicated in fibrogenesis.

CC1=C(CO)C(=O)O[C@@H]([C@@H](C)[C@H]2CC[C@H]3[C@@H]4C[C@H]5O[C@]56[C@@H](O)C=CC(=O)[C@]6(C)[C@H]4CC[C@]23C)C1 [WA, Withaferin A]
corneal opacity [1]: dramatically reduced
neovascularization (growth of new blood vessels in cornea) [1]: dramatically reduced
corneal expression of native I-kappa-B-alpha [2]: dose-dependently inhibits
HO-1 expression in cornea [3]: potently downregulated HO-1 expression to almost undetectable levels
expression of 70 kDa ubiquitinated protein (UbTKT) in cornea, ubiquitin immunoblot ([4]; 2.5 mg/kg/d every day, injured corneas, versus vehicle): abundantly expressed in vehicle-treated mouse corneas compared to corneas from WA-treated mice
levels of the 70 kDa protein by Coomassie blue staining ([4]; uninjured, vehicle and WA-treated samples, 3-, 5-, 4- and 6-day time-points): not significantly altered
TKT staining in cornea, immunohistochemical analysis ([5]; 4 d, compared with uninjured and vehicle-treated): present, although at levels lower than that of uninjured cornea
TKT detected by anti-mouse TKT antibody on western blot (longer film exposure) [5]: presence of the TKT
UPP functions [6]: potent downregulation

CC[C@H](C)[C@H](NC(=O)[C@H]([C@@H](C)CC)N(C)C(C)=O)C(=O)N[C@H](C(=O)N[C@@H](CC(C)C)C(=O)[C@@]1(C)CO1)[C@@H](C)O [epoxomicin, reference compound]
TKT detected by anti-mouse TKT antibody on western blot (longer film exposure) [5]: presence of the TKT
